Where only a bound is given, the exact number is not on record here.

A word on the IC50: it is the concentration that inhibits the measured activity by half.

For the assay, the target named is T1, ALK (baculovirus expressed human ALK kinase domain F1098-K1410) (Homo sapiens, UniProt Q9UM73).
T1 construct: baculovirus expressed human ALK kinase domain F1098-K1410; made in house
T1 sequence (Q9UM73 1098-1410): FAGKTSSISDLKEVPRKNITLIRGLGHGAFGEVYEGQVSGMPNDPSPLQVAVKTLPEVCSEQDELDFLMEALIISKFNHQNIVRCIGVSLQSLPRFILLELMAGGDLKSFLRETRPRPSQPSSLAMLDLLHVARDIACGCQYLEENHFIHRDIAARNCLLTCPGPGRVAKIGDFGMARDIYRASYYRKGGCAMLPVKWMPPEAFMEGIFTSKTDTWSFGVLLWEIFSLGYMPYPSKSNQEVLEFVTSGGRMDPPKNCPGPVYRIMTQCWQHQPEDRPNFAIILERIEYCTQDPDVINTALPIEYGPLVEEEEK
Nature of the assay: Luciferase-Coupled Chemiluminescent Kinase assay (LCCA), ALK biochemical activity. The settings on record: inhibition of ALK; mean values; 1 μM ATP, 4 μM poly-AEKY, 12 nM ALK, 2 hours ambient temperature. In a few lines: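 Luciferase-coupled readout of ATP remaining after reaction of 12 nM ALK kinase domain with 1 μM ATP and 4 μM poly-AEKY, Tris-HCl pH 7.5 buffer with MgCl2 and MnCl2. Incubated 2 h at ambient temperature; inhibition derived from ATP consumption across serial compound dilutions.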
As for `Cc1n[nH]c2nc(-c3ccc(O)c(Cl)c3)c3c(F)cc(OCC4CCN(C)CC4)c(F)c3c12` [Example 169, 2-chloro-4-(6,9-difluoro-1-methyl-8-{[(1-methylpiperidin-4-yl)methyl]oxy}-3H-pyrazolo[3,4-c]isoquinolin-5-yl)phenol], the 50% inhibitory concentration (IC50) was not above 99 nM.
In the case of `COc1c(F)cc2c(c(-c3ccc(O)c(Cl)c3)nc3[nH]nc(C)c32)c1O` [Example 170, 5-(3-chloro-4-hydroxyphenyl)-8-fluoro-1-methyl-7-(methyloxy)-3H-pyrazolo[3,4-c]isoquinolin-6-ol], the IC50 was not above 99 nM.
As to `COc1c(OCC2CCN(C)CC2)cc2c(c(-c3ccc(O)c(Cl)c3)nc3[nH]nc(C)c32)c1F` [Example 171, 2-chloro-4-(6-fluoro-1-methyl-7-(methyloxy)-8-{[(1-methylpiperidin-4-yl)methyl]oxy}-3H-pyrazolo[3,4-c]isoquinolin-5-yl)phenol], the IC50 was not above 99 nM.
The result for `COCCOc1cc(F)c2c(-c3ccc(O)c(Cl)c3)nc3[nH]nc(C)c3c2c1OCCOC` [Example 172, 2-chloro-4-(6-fluoro-1-methyl-8,9-bis{[2-(methyloxy)ethyl]oxy}-3H-pyrazolo[3,4-c]isoquinolin-5-yl)phenol] reads not above 99 nM; that for `COc1ccc(-c2nc3[nH]nc(C)c3c3cc(OCC4CCN(C)CC4)c(OC)c(F)c23)cc1Cl` [Example 173, 5-[3-chloro-4-(methyloxy)phenyl]-6-fluoro-1-methyl-7-(methyloxy)-8-{[(1-methylpiperidin-4-yl)methyl]oxy}-3H-pyrazolo[3,4-c]isoquinoline], 1000 to 2000 nM.
Next, `COc1ccc(-c2nc3[nH]nc(C)c3c3cc(F)c(OC)c(O)c23)cc1Cl` [Example 174, 5-[3-chloro-4-(methyloxy)phenyl]-8-fluoro-1-methyl-7-(methyloxy)-3H-pyrazolo[3,4-c]isoquinolin-6-ol]: more than 2000 nM; `COc1c(OCCN2CCCCC2)cc2c(c(-c3ccc(O)c(Cl)c3)nc3[nH]nc(C)c32)c1F` [Example 176, 2-chloro-4-{6-fluoro-1-methyl-7-(methyloxy)-8-[(2-piperidin-1-ylethyl)oxy]-3H-pyrazolo[3,4-c]isoquinolin-5-yl}phenol]: not above 99 nM.
`CCN1CCN(CCOc2cc3c(c(-c4ccc(O)c(Cl)c4)nc4[nH]nc(C)c43)c(F)c2OC)CC1` [Example 177, 2-chloro-4-[8-{[2-(4-ethylpiperazin-1-yl)ethyl]oxy}-6-fluoro-1-methyl-7-(methyloxy)-3H-pyrazolo[3,4-c]isoquinolin-5-yl]phenol] gave a half-inhibitory concentration (IC50) not above 99 nM.
The result for `CCN(CC)CCOc1cc2c(c(-c3ccc(O)c(Cl)c3)nc3[nH]nc(C)c32)c(F)c1OC` [Example 178, 2-chloro-4-[8-{[2-(diethylamino)ethyl]oxy}-6-fluoro-1-methyl-7-(methyloxy)-3H-pyrazolo[3,4-c]isoquinolin-5-yl]phenol] reads not above 99 nM; that for `COCCOc1cc2c(c(-c3ccc(O)c(Cl)c3)nc3[nH]nc(C)c32)c(F)c1OC` [Example 179, 2-chloro-4-(6-fluoro-1-methyl-7-(methyloxy)-8-{[2-(methyloxy)ethyl]oxy}-3H-pyrazolo[3,4-c]isoquinolin-5-yl)phenol], not above 99 nM; that for `COc1c(OCC2CCN(C)CC2)cc(F)c2c(-c3ccc(O)c(Cl)c3)nc3[nH]nc(C)c3c12` [Example 182, 2-chloro-4-(6-fluoro-1-methyl-9-(methyloxy)-8-{[(1-methylpiperidin-4-yl)methyl]oxy}-3H-pyrazolo[3,4-c]isoquinolin-5-yl)phenol], not above 99 nM.
The result for `COc1c(OCC2CCN(C)CC2)cc(F)c2c(-c3ccc(O)c(Br)c3)nc3[nH]nc(C)c3c12` [Example 183, 2-bromo-4-(6-fluoro-1-methyl-9-(methyloxy)-8-{[(1-methylpiperidin-4-yl)methyl]oxy}-3H-pyrazolo[3,4-c]isoquinolin-5-yl)phenol] reads not above 99 nM; that for `COc1c(OCC2CCN(C)CC2)cc(F)c2c(-c3cc(Cl)c(O)cc3F)nc3[nH]nc(C)c3c12` [Example 184, 2-chloro-5-fluoro-4-(6-fluoro-1-methyl-9-(methyloxy)-8-{[(1-methylpiperidin-4-yl)methyl]oxy}-3H-pyrazolo[3,4-c]isoquinolin-5-yl)phenol], not above 99 nM; that for `COc1c(OCC2CCN(C)CC2)cc(F)c2c(-c3ccc(O)c(C)c3)nc3[nH]nc(C)c3c12` [Example 185, 4-(6-fluoro-1-methyl-9-(methyloxy)-8-{[(1-methylpiperidin-4-yl)methyl]oxy}-3H-pyrazolo[3,4-c]isoquinolin-5-yl)-2-methylphenol], not above 99 nM.
In the case of `Cc1n[nH]c2nc(-c3ccc(O)c(Cl)c3)c3c(F)cc(OCCN4CCCCC4)c(F)c3c12` [Example 186, 2-chloro-4-{6,9-difluoro-1-methyl-8-[(2-piperidin-1-ylethyl)oxy]-3H-pyrazolo[3,4-c]isoquinolin-5-yl}phenol], the IC50 is not above 99 nM.
The result for `CCN1CCN(CCOc2cc(F)c3c(-c4ccc(O)c(Cl)c4)nc4[nH]nc(C)c4c3c2F)CC1` [Example 187, 2-chloro-4-(8-{[2-(4-ethylpiperazin-1-yl)ethyl]oxy}-6,9-difluoro-1-methyl-3H-pyrazolo[3,4-c]isoquinolin-5-yl)phenol] reads not above 99 nM.
Next, `CCN(CC)CCOc1cc(F)c2c(-c3ccc(O)c(Cl)c3)nc3[nH]nc(C)c3c2c1F` [Example 188, 2-chloro-4-(8-{[2-(diethylamino)ethyl]oxy}-6,9-difluoro-1-methyl-3H-pyrazolo[3,4-c]isoquinolin-5-yl)phenol]: not above 99 nM; `Cc1n[nH]c2nc(-c3ccc4[nH]ccc4c3)c3c(F)cc(O)c(F)c3c12` [Example 191, 6,9-difluoro-5-(1H-indol-5-yl)-1-methyl-3H-pyrazolo[3,4-c]isoquinolin-8-ol]: 100 to 999 nM; `Cc1n[nH]c2nc(-c3ccc(N)cc3)c3c(F)cc(O)c(F)c3c12` [Example 193, 5-(4-aminophenyl)-6,9-difluoro-1-methyl-3H-pyrazolo[3,4-c]isoquinolin-8-ol]: 1000 to 2000 nM.
Next, `COc1c(OCCN2CCN(C)CC2)cc2c(c(-c3ccc(O)c(Cl)c3)nc3[nH]nc(C)c32)c1F` [Example 194, 2-chloro-4-(6-fluoro-1-methyl-7-(methyloxy)-8-{[2-(4-methylpiperazin-1-yl)ethyl]oxy}-3H-pyrazolo[3,4-c]isoquinolin-5-yl)phenol]: not above 99 nM; `Cc1n[nH]c2nc(-c3cnc(N)s3)c3c(F)cc(O)c(F)c3c12` [Example 195, 5-(2-amino-1,3-thiazol-5-yl)-6,9-difluoro-1-methyl-3H-pyrazolo[3,4-c]isoquinolin-8-ol]: not above 99 nM; `CCN1CCN(CCOc2cc(F)c3c(-c4ccc(O)c(Cl)c4)nc4[nH]nc(C)c4c3c2OC)CC1` [Example 196, 2-chloro-4-[8-{[2-(4-ethylpiperazin-1-yl)ethyl]oxy}-6-fluoro-1-methyl-9-(methyloxy)-3H-pyrazolo[3,4-c]isoquinolin-5-yl]phenol]: not above 99 nM.
Take `COc1c(OCCN2CCN(C)CC2)cc(F)c2c(-c3ccc(O)c(Cl)c3)nc3[nH]nc(C)c3c12` [Example 197, 2-chloro-4-(6-fluoro-1-methyl-9-(methyloxy)-8-{[2-(4-methylpiperazin-1-yl)ethyl]oxy}-3H-pyrazolo[3,4-c]isoquinolin-5-yl)phenol]: the IC50 was not above 99 nM.
Next, `Cc1n[nH]c2nc(-c3ccc(N)nc3)c3c(F)cc(O)c(F)c3c12` [Example 198, 5-(6-aminopyridin-3-yl)-6,9-difluoro-1-methyl-3H-pyrazolo[3,4-c]isoquinolin-8-ol]: more than 2000 nM.
The result for `Cc1n[nH]c2nc(-c3ccc(N)s3)c3c(F)cc(O)c(F)c3c12` [Example 199, 5-(5-amino-2-thienyl)-6,9-difluoro-1-methyl-3H-pyrazolo[3,4-c]isoquinolin-8-ol] reads 100 to 999 nM; that for `CCN1CCN(CCCOc2cc(F)c3c(-c4ccc(O)c(Cl)c4)nc4[nH]nc(C)c4c3c2OC)CC1` [Example 200, 2-chloro-4-[8-{[3-(4-ethylpiperazin-1-yl)propyl]oxy}-6-fluoro-1-methyl-9-(methyloxy)-3H-pyrazolo[3,4-c]isoquinolin-5-yl]phenol], not above 99 nM; that for `COc1c(OCCCN2CCN(C)CC2)cc(F)c2c(-c3ccc(O)c(Cl)c3)nc3[nH]nc(C)c3c12` [Example 201, 2-chloro-4-(6-fluoro-1-methyl-9-(methyloxy)-8-{[3-(4-methylpiperazin-1-yl)propyl]oxy}-3H-pyrazolo[3,4-c]isoquinolin-5-yl)phenol], not above 99 nM.
The result for `Cc1n[nH]c2nc(-c3ccc4cc[nH]c4c3)c3c(F)cc(O)c(F)c3c12` [Example 202, 6,9-difluoro-5-(1H-indol-6-yl)-1-methyl-3H-pyrazolo[3,4-c]isoquinolin-8-ol] reads more than 2000 nM.
Turning to `CC(=O)Nc1ncc(-c2nc3[nH]nc(C)c3c3c(F)c(O)cc(F)c23)s1` [Example 203, N-[5-(6,9-difluoro-8-hydroxy-1-methyl-3H-pyrazolo[3,4-c]isoquinolin-5-yl)-1,3-thiazol-2-yl]acetamide], the IC50 is 1000 to 2000 nM.
The result for `COc1c(OCCN2CCOCC2)cc(F)c2c(-c3ccc(O)c(Cl)c3)nc3[nH]nc(C)c3c12` [Example 206, 2-chloro-4-{6-fluoro-1-methyl-9-(methyloxy)-8-[(2-morpholin-4-ylethyl)oxy]-3H-pyrazolo[3,4-c]isoquinolin-5-yl}phenol] reads not above 99 nM; that for `CCCCN(CC)CCOc1cc(F)c2c(-c3ccc(O)c(Cl)c3)nc3[nH]nc(C)c3c2c1OC` [Example 207, 4-[8-({2-[butyl(ethyl)amino]ethyl}oxy)-6-fluoro-1-methyl-9-(methyloxy)-3H-pyrazolo[3,4-c]isoquinolin-5-yl]-2-chlorophenol], not above 99 nM.

The record behind these values is patent US7872014B2, “Anaplastic lymphoma kinase modulators and methods of use” (Exelixis, Inc., priority 2003, dated 2011).
